Data as given in patent US9550739B2, “Molecules having certain pesticidal utilities, and intermediates, compositions, and processes related thereto” (priority 2014, dated 2017).

Legend:
Format in all cases: in vivo
[1] = tested on: Beet Armyworm (Spodoptera exigua, LAPHEG) ("BAW"); test: Bioassays on Beet Armyworm (BAW), 128-well diet tray assay; conditions: Spodoptera exigua, 168 h; second instar BAW larvae, 50 μg/cm^2 on artificial diet, five to seven days, 25° C.; read-out: BAW % Control (or Mortality) rating
How it was run: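 Second-instar larvae, one to five per well, were placed on artificial diet surface-treated with 50 μg/cm^2 compound in 90:10 acetone-water and dried, eight wells per compound. Trays were held at 25° C, 14:10 light-dark, for five to seven days. Percent mortality per well was averaged over the eight wells.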

[2] = tested on: Cabbage Looper (Trichoplusia ni, TRIPNI) ("CL"); test: Bioassays on Cabbage Looper (CL), 128-well diet tray assay; conditions: Trichoplusia ni, 168 h, read-out: CL % Control (or Mortality) rating
How it was run: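 Second instar larvae (one to five per well) placed on artificial diet treated with 50 μg/cm^2 compound in acetone-water, eight wells per compound. Held at 25° C, 14:10 light-dark for five to seven days; percent mortality averaged across wells.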

[3] = tested on: Green Peach Aphid (Myzus persicae, MYZUPE) ("GPA"); test: Bioassays on Green Peach Aphid (GPA), cabbage seedling foliar spray; conditions: 72 h, 200 ppm foliar spray on cabbage seedlings, three days, Abbott corrected % control, read-out: GPA % Control (or Mortality) rating
Procedure: Certain molecules disclosed in this document were tested against GPA using procedures described in the following example. In the reporting of the results, the “GPA Rating Table” was used (See Table Section).
Cabbage seedlings grown in 3-inch pots, with 2-3 small (3-5 cm) true leaves, were used as test substrate. The seedlings were infested with 20-50 GPA (wingless adult and nymph stages) one day prior to chemical application. Four pots with individual seedlings were used for each treatment. Test compounds (2 mg) were dissolved in 2 mL of acetone/methanol (1:1) solvent, forming stock solutions of 1000 ppm test compound. The stock solutions were diluted 5× with 0.025% Tween 20 in water to obtain the solution at 200 ppm test compound. A hand-held aspirator-type sprayer was used for spraying a solution to both sides of […] leaves until runoff. Reference plants (solvent check) were sprayed with the diluent only containing 20% by volume of acetone/methanol (1:1) solvent. Treated plants were held in a holding room for three days at approximately 25° C. and ambient relative humidity (RH) prior to grading. Evaluation was conducted by counting the number of live aphids per plant under a microscope. Percent Control was measured by using Abbott's correction formula (W. S. Abbott, “A Method of Computing the Effectiveness of an Insecticide” J. Econ. Entomol. 18 (1925), pp. 265-267) as follows. Corrected % Control=100*(X−Y)/X • where • X=No. of live aphids on solvent check plants and • Y=No. of live aphids on treated plants

[4] = tested on: Yellow Fever Mosquito (Aedes aegypti, AEDSAE) ("YFM"); conditions: about 1 day-old larvae, 4000 ppm master solution diluted, 3 days, room temperature
How it was run: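 Compounds from 4000 ppm DMSO master plates, diluted in 90:10 water:acetone, dispensed into 96-well plates, six replicates. About 1-day-old larvae added in liver-powder water. Wells covered, held 3 days at room temperature, then scored for mortality.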

| Compound | mortality at 50 µg/cm2 [1] [%] | mortality at 50 µg/cm2 [2] [%] | mortality at 200 ppm [3] [%] | YFM % Control (or Mortality) rating [4] |
| --- | --- | --- | --- | --- |
| CCOc1ccccc1-c1cccc(C(=O)Nc2ccc(-c3ncn(-c4ccc(OC(F)(F)F)cc4)n3)cc2)c1 [F38, 2′-Ethoxy-N-(4-(1-(4-(trifluoromethoxy)phenyl)-1H-1,2,4-triazol-3-yl)phenyl)-[1,1′-biphenyl]-3-carboxamide] | 50 to 100 | 50 to 100 | 0 to 80 | A (80-100) |
| O=C(Nc1ccc(-c2ncn(-c3ccc(OC(F)(F)F)cc3)n2)cc1)c1cccc(-c2ccccc2)c1 [F24, N-(4-(1-(4-(trifluoromethoxy)phenyl)-1H-1,2,4-triazol-3-yl)phenyl)-[1,1′-biphenyl]-3-carboxamide] | 50 to 100 | 50 to 100 | 0 to 80 | D (No activity noticed in this bioassay) |
| COc1ccccc1-c1cccc(C(=O)Nc2ccc(-c3ncn(-c4ccc(C(F)(F)F)cc4)n3)cc2)c1 [F60, 2′-Methoxy-N-(4-(1-(4-(trifluoromethyl)phenyl)-1H-1,2,4-triazol-3-yl)phenyl)-[1,1′-biphenyl]-3-carboxamide] | 50 to 100 | 50 to 100 | 0 to 80 | A (80-100) |
| O=C(NCCc1ccc(-c2ncn(-c3ccc(OC(F)(F)F)cc3)n2)cc1)c1ccc(F)c(-c2ccccc2F)c1 [F55, 2′,6-Difluoro-N-(4-(1-(4-(trifluoromethoxy)phenyl)-1H-1,2,4-triazol-3-yl)phenethyl)-[1,1′-biphenyl]-3-carboxamide] | 50 to 100 | 50 to 100 | 0 to 80 | D (No activity noticed in this bioassay) |
| Cc1c(C(=O)Nc2ccc(-c3ncn(-c4ccc(OC(F)(F)F)cc4)n3)cc2)cccc1-c1ccccc1 [F14, 2-Methyl-N-(4-(1-(4-(trifluoromethoxy)phenyl)-1H-1,2,4-triazol-3-yl)phenyl)-[1,1′-biphenyl]-3-carboxamide] | 50 to 100 | 50 to 100 | 0 to 80 | D (No activity noticed in this bioassay) |
| O=C(Nc1ccc(-c2ncn(-c3ccc(C(F)(F)F)cc3)n2)cc1)c1ccc(F)c(-c2ccccc2F)c1 [F59, 2′,6-Difluoro-N-(4-(1-(4-(trifluoromethyl)phenyl)-1H-1,2,4-triazol-3-yl)phenyl)-[1,1′-biphenyl]-3-carboxamide] | 50 to 100 | 50 to 100 | 0 | A (80-100) |
| CCc1ccccc1-c1cccc(C(=O)Nc2ccc(-c3ncn(-c4ccc(OC(F)(F)F)cc4)n3)cc2)c1 [F8, 2′-Ethyl-N-(4-(1-(4-(trifluoromethoxy)phenyl)-1H-1,2,4-triazol-3-yl)phenyl)-[1,1′-biphenyl]-3-carboxamide] | 50 to 100 | 50 to 100 | 0 to 80 | B (More than 0-Less than 80) |
| Cc1cccc(C)c1-c1cccc(C(=O)Nc2ccc(-c3ncn(-c4ccc(OC(F)(F)F)cc4)n3)cc2)c1 [F12, 2′,6′-Dimethyl-N-(4-(1-(4-(trifluoromethoxy)phenyl)-1H-1,2,4-triazol-3-yl)phenyl)-[1,1′-biphenyl]-3-carboxamide] | 50 to 100 | 50 to 100 | 0 to 80 | A (80-100) |
| COc1ccccc1-c1cc(C(=O)Nc2ccc(-c3ncn(-c4ccc(OC(C)C)cc4)n3)cc2)ccc1F [F4, 6-Fluoro-N-(4-(1-(4-isopropoxyphenyl)-1H-1,2,4-triazol-3-yl)phenyl)-2′-methoxy-[1,1′-biphenyl]-3-carboxamide] | 50 to 100 | 50 to 100 | – | B (More than 0-Less than 80) |
| O=C(Nc1ccc(-c2ncn(-c3ccc(C(F)(F)F)cc3)n2)cc1)c1ccc(F)c(-c2ccccc2)c1 [F62, 6-Fluoro-N-(4-(1-(4-(trifluoromethyl)phenyl)-1H-1,2,4-triazol-3-yl)phenyl)-[1,1′-biphenyl]-3-carboxamide] | 50 to 100 | 50 to 100 | – | B (More than 0-Less than 80) |
